From patent publication US20110306641A1, “NOVEL 2,6-SUBSTITUTED-3-NITROPYRIDINE DERIVATIVE, METHOD FOR PREPARING SAME, AND PHARMACEUTICAL PREPARATION INCLUDING SAME” (priority 2008, published 2011) come the findings set out here.

Structures are written as SMILES.

Series [1] relates to osteoclastogenesis (formation of multinucleated osteoclasts). Briefly: Osteoclastogenesis inhibition via co-culture system (bone marrow cells + osteoblasts, TRAP staining). Format: cell-based, mouse. The following applies: Mus musculus, Osteoclast, 168 h, 7 days co-culture, vs vehicle control. The method, then:
Osteoclastogenesis inhibitory effects of the compounds of the present invention were evaluated via a co-culture system (Reference: Endocrinology 137(1996), 2187 to 2190, E. Jimi et al.). A specific experimental method is as follows.
1) Preparation of Bone Marrow Cells and Osteoblasts
Femur and tibia were aseptically dissected from 6 to 8-week-old male ddY mice to harvest bone marrow cells by a conventional method using a syringe. In brief, tissues were removed from the dissected bone, the bone ends were cut off with scissors, and the bone marrow was isolated by pushing a medium-containing syringe (23G) against the one end of the cut bone. The isolated bone marrow was subjected to repeated piston movement of a syringe such that single cells were obtained (Reference: Endocrinology 123(1988), 2600 to 2602, Takahashi et al.). After removal of red blood cells within the bone marrow, the bone marrow cells recovered by centrifugation were placed in an α-MEM supplemented with 10% fetal bovine serum (FBS), followed by counting of nucleated cells and then were immediately used for a co-culture system.
For the preparation of osteoblasts (Calvarial cells), the cranial bone were aseptically dissected from 1 to 2-day-old neonatal ICR mice and subjected to continuous reaction with a 0.2% collagenase solution to separate osteoblasts. The cell-suspended supernatant was centrifuged to recover osteoblasts which were grown to full confluence in an α-MEM supplemented with 10% FBS and then diluted to a desired cell density for use in the experiment.
2) Osteoclastogenesis Inhibition Experiment Via Co-Culture System
As the medium used for a co-culture system, a differentiation medium with the addition of differentiation factors 1α,25-dihydroxyvitamin D3 (10^−8M) and dexamethasone (10^−8M) to α-MEM supplemented with 10% FBS was used for the induction of osteoclastogenesis. First, the compounds of the present invention dissolved in dimethyl sulfoxide (DMSO) at a concentration of 1 mM were diluted to 2 μM using the above-mentioned differentiation medium. As a vehicle control group, 0.2% (v/v) DMSO was added to the medium. 100 μL/well of each medium was added to 96-well plates. In addition, the above prepared bone marrow cells and osteoblasts were plated onto 96-well plates at a density of 1×10^5 cells/50 μL/well and 3×10^3 cells/50 μL/well, respectively. The total volume/well was 200 μL and the final compound concentration was 1 μM. The control group was 0.1% (v/v) DMSO. The cells were cultured with exchange of the culture media with fresh media containing differentiation factors and test materials (materials containing the compounds of the present invention) at an interval of 2 to 3 days.
7 days after culturing of cells, the formation of multinucleated osteoclasts was confirmed by microscopic examination, the medium was removed from the wells and then the cells were fixed in a 10% phosphate-buffered formalin solution. The degree of formation of mature osteoclasts was measured taking advantage of the characteristics of osteoclasts showing a positive reaction to a tartrate-resistant acid phosphatase (TRAP) staining solution. The TRAP staining solution was prepared in a manner such that naphthol AS-MS phosphate as a substrate and a coloring agent (Fast Red Violet LB salt) were dissolved in N,N-dimethylformamide, and a 0.1N NaHCO3 buffer solution containing 50 mM of tartaric acid was added thereto. Among the TRAP-positive cells under a light microscope, multinucleated osteoclasts having 6 to 7 nuclei were regarded as mature osteoclasts.
The degree of inhibition of osteoclastogenesis was calculated according to the following equation 1. The results are summarized in Table 2 below (Experiments were carried out for 4 wells/experimental group (n=4), and the results are given in terms of mean±standard deviation) […]

In a further series the test system is Calvarial cell. Briefly: Cytotoxicity test (MTT) in osteoblasts (calvarial cells). The following applies: 1 μM, 72 hours, vs vehicle control.

Protocol for Calvarial cell: Drugs were diluted to a concentration of 2 μM in α-MEM culture media supplemented with 10% FBS. The vehicle control group was established to contain 0.2% DMSO. 100 μL/well of the diluted drugs were dispensed into 96-well plates to which osteoblasts (calvarial cells) prepared in Experimental Example 1 were then added at a density of 1.0×10^4 cells/100 μL/well. Here, the final compound concentration in the cell culture was 1 μM, and the vehicle control group contained 0.1% DMSO. The cells were cultured in a 5% CO2 inhibitorr at 37° for 72 hours. 25 μL of 3-(4,5-dimethyl-2-thiazolyl)-2,5-diphenyl-2H-tetrazolium bromide (MTT) dissolved in PBS (2 mg/mL) was added to each cell culture 4 hours before the end of culture. After completion of the reaction, the plates were centrifuged, the media were discarded, and 100 μL of formazan was added and dissolved in dimethyl sulfoxide (DMSO). Finally, the absorbance of the developed plates was measured at 540 nm. The cell viability was expressed as % concentration in comparison with the vehicle control group.

Usually inhibition stands for the relative decrease from the control value, in per cent. `Cc1nccn1-c1ccc([N+](=O)[O-])c(Nc2ccc3[nH]ncc3c2)n1` [Compound 2, 2-(1H-indazol-5-yl)amino-6-(2-methylimidazol-1-yl)-3-nitropyridine]: in series [1], the inhibition at 1 µM was found to be 70%. Further, the “Cell viability (%) Calvarial cell” value in the series on Calvarial cell is 104%.

Turning to `Cc1cncn1-c1ccc([N+](=O)[O-])c(Nc2ccc3[nH]ncc3c2)n1` [Compound 4, 2-(1H-indazol-5-yl)amino-6-(5-methylimidazol-1-yl)-3-nitropyridine], in series [1], the inhibition at 1 µM amounted to 67%. For the same compound, the “Cell viability (%) Calvarial cell” value in the series with Calvarial cell worked out at 101%. In the same order, the values of `CC1(C)CN(c2ccc([N+](=O)[O-])c(Nc3ccc4[nH]ncc4c3)n2)CC(C)(C)N1` [Compound 13, 2-(1H-indazol-5-yl)amino-6-(2,2,6,6-tetramethylpiperazin-4-yl)-3-nitropyridine] are 88% and 94%. The like results for `O=[N+]([O-])c1ccc(N2CCN(CCO)CC2)nc1Nc1ccc2[nH]ncc2c1` [Compound 15, 2-(1H-indazol-5-yl)amino-6-[4-(2-hydroxyethyl)piperazin-1-yl]-3-nitropyridine] were, in that order, 98% and 90%. With `C[C@@H](CO)Nc1ccc([N+](=O)[O-])c(Nc2ccc3cn[nH]c3c2)n1` [Compound 18, 2-(1H-indazol-6-yl)amino-6-[(1-(S)-methyl-2-hydroxyethyl)-amino]-3-nitropyridine], in the series on Calvarial cell, the “Cell viability (%) Calvarial cell” value is reported as 98%. With `O=[N+]([O-])c1ccc(NCCc2ccccn2)nc1Nc1ccc2[nH]ncc2c1` [Compound 27, 2-(1H-indazol-5-yl)amino-6-[(2-pyridyl)ethylamino]-3-nitropyridine], in series [1], the inhibition at 1 µM was determined as 90%. Besides, the “Cell viability (%) Calvarial cell” value in the series on Calvarial cell came out at 97%. In the same order, the values of `O=[N+]([O-])c1ccc(NCCN2CCOCC2)nc1Nc1ccc2cn[nH]c2c1` [Compound 28, 2-(1H-indazol-6-yl)amino-6-(2-morpholinoethylamino)-3-nitropyridine] are 74% and 104%. The like results for `O=[N+]([O-])c1ccc(NCCCn2ccnc2)nc1Nc1ccc2[nH]ncc2c1` [Compound 29, 2-(1H-indazol-5-yl)amino-6-[3-(imidazol-1-yl)propylamino]-3-nitropyridine] were, in that order, 73% and 117%. As to `NC1CCCCC1Nc1ccc([N+](=O)[O-])c(Nc2ccc3[nH]ncc3c2)n1` (centres unmarked) [Compound 30, 2-(1H-indazol-5-yl)amino-6-[(2-aminocyclohexyl)amino]-3-nitropyridine], in series [1], the inhibition at 1 µM came out at 100%. Also, the “Cell viability (%) Calvarial cell” value in the series on Calvarial cell amounted to 114%. As for `CNc1ccc([N+](=O)[O-])c(Nc2ccc3cn[nH]c3c2)n1` [Compound 31, 2-(1H-indazol-6-yl)amino-6-(methylamino)-3-nitropyridine], the “Cell viability (%) Calvarial cell” value with Calvarial cell was found to be 97%. Regarding `Nc1ccc([N+](=O)[O-])c(Nc2ccc3[nH]ncc3c2)n1` [Compound 32, 2-(1H-indazol-5-yl)amino-6-amino-3-nitropyridine], the inhibition at 1 µM in series [1] was found to be 100%. The “Cell viability (%) Calvarial cell” value in the series with Calvarial cell stood at 99%. The like results for `C[C@@H](CO)Nc1ccc([N+](=O)[O-])c(Nc2ccc3[nH]ncc3c2)n1` [Compound 36, 2-(1H-indazol-5-yl)amino-6-[(1-(S)-methyl-2-hydroxyethyl)-amino]-3-nitropyridine] were, in that order, 72% and 103%. Take `O=[N+]([O-])c1ccc(N2CCNCC2)nc1Nc1ccc2cn[nH]c2c1` [Compound 38, 2-(1H-indazol-6-yl)amino-6-(piperazin-1-yl)-3-nitropyridine]: the inhibition at 1 µM in series [1] stood at 90%. For the same compound, the “Cell viability (%) Calvarial cell” value in the series with Calvarial cell was found to be 91%. Turning to `CN1CCN(c2ccc([N+](=O)[O-])c(Nc3ccc4cn[nH]c4c3)n2)CC1` [Compound 40, 2-(1H-indazol-6-yl)amino-6-(4-methylpiperazin-1-yl)-3-nitropyridine], in the series on Calvarial cell, the “Cell viability (%) Calvarial cell” value is listed as 95%. Still for that read-out and setting: then `O=[N+]([O-])c1ccc(N2CCC(O)CC2)nc1Nc1ccc2cn[nH]c2c1` [Compound 41, 2-(1H-indazol-6-yl)amino-6-(4-hydroxypiperidino)-3-nitropyridine], with 98%. Same read-out and setting: then `CN1CCN(Nc2ccc([N+](=O)[O-])c(Nc3ccc4[nH]ncc4c3)n2)CC1` [Compound 42, 2-(1H-indazol-5-yl)amino-6-[(4-methylpiperazin-1-yl)amino]-3-nitropyridine], with 106%; and `CC(C)(C)NNc1ccc([N+](=O)[O-])c(Nc2ccc3[nH]ncc3c2)n1` [Compound 43, 2-(1H-indazol-5-yl)amino-6-[(t-butylamino)amino]-3-nitropyridine], with 100%. Take `CC1CN(c2ccc([N+](=O)[O-])c(Nc3ccc4[nH]ncc4c3)n2)CC(C)N1` (centres unmarked) [Compound 44, 2-(1H-indazol-5-yl)amino-6-(3,5-dimethylpiperazin-1-yl)-3-nitropyridine]: the inhibition at 1 µM in series [1] stood at 90%. The “Cell viability (%) Calvarial cell” value with Calvarial cell is reported as 96%. For `O=[N+]([O-])c1ccc(NCc2cccnc2)nc1Nc1ccc2[nH]ncc2c1` [Compound 45, 2-(1H-indazol-5-yl)amino-6-[(3-pyridyl)methylamino]-3-nitropyridine], the “Cell viability (%) Calvarial cell” value in the series on Calvarial cell came out at 103%. The same measure, in the same setting: then `O=[N+]([O-])c1ccc(NCc2cccnc2)nc1Nc1ccc2cn[nH]c2c1` [Compound 46, 2-(1H-indazo-6-yl)amino-6-[(3-pyridyl)methylamino]-3-nitropyridine], with 99%. On to `O=[N+]([O-])c1ccc(NCc2ccncc2)nc1Nc1ccc2[nH]ncc2c1` [Compound 47, 2-(1H-indazol-5-yl)amino-6-[(4-pyridyl)methylamino]-3-nitropyridine], for which the inhibition at 1 µM in series [1] is 71%. The “Cell viability (%) Calvarial cell” value with Calvarial cell is recorded as 102%. `O=[N+]([O-])c1ccc(NCCc2c[nH]cn2)nc1Nc1ccc2[nH]ncc2c1` [Compound 48, 2-(1H-indazol-5-yl)amino-6-[(imidazol-4-yl)ethylamino]-3-nitropyridine]: in the series on Calvarial cell, the “Cell viability (%) Calvarial cell” value was found to be 96%. On to `NCCCCNc1ccc([N+](=O)[O-])c(Nc2ccc3[nH]ncc3c2)n1` [Compound 50, 2-(1H-indazol-5-yl)amino-6-(4-amino-n-butylamino)-3-nitropyridine], for which the inhibition at 1 µM in series [1] worked out at 100%. In addition, in the series on Calvarial cell, the “Cell viability (%) Calvarial cell” value is 95%.

Take `NC1CCN(c2ccc([N+](=O)[O-])c(Nc3ccc4[nH]ncc4c3)n2)CC1` [Compound 51, 2-(1H-indazol-5-yl)amino-6-[(4-amino)piperidino]-3-nitropyridine]: in the series with Calvarial cell, the “Cell viability (%) Calvarial cell” value was determined as 73%.
